Results published in patent US12686652B2, “Methods of increasing irrigation water and fertilizer delivery to soil using formic acid and formate salts, making a formate salt from carbon dioxide, and generating a carbon credit” (Deerpoint Group, Inc., priority 2023, dated 2026).
Several values for one entry are separate records, joined by “and”; a condition that tells them apart may be missing. Equal entries are not always repeated. Where two headings read alike, the source gives them in different places.

How the values were obtained:
[1] = for Liquid Eluted after 60 min / Liquid Eluted after 120 min / Time (50 g of liquid, in min) / Liquid Eluted after 240 min: Ca formate 22 ppm by moles, average of two columns; for Liquid Eluted after 60 min / Liquid Eluted after 120 min / Time (50 g of liquid, in min): HCO2H 0.33% by weight
Text: The objective was to investigate the behavior of different irrigation water treatments and determine the relative amounts of water that passed through the soil columns. The column retention times reflect the rate at which the liquid passes through the soil. Understanding these retention times provides insights about the transport and movement of irrigation water (and any fertilizers dissolved therein) through the soil, which has implications for the volume of water passing into and through the root zone, nutrient availability to crops, leaching of contaminants, and overall soil health.
The data in Table 1 is for the average of the two soil samples.

[2] = Text: The irrigation water at the second farm was from a different source than the first farm.
[3] = first farm soil, duplicate columns A and B
[4] = ICP and flow injection (FIA) analyses of solutions passed through soil columns, second farm; settings: single soil sample
Text: FIA was used to determine the content of the listed anion (e.g., NO3, Cl, PO4, etc.). Results are presented from a single soil sample.

[5] = first pass, dry soil, second farm (FIG. 3)
[6] = 1st pass, Alternating = formic acid pass
[7] = 2nd pass, Alternating = calcium formate pass
[8] = 3rd pass, Alternating = formic acid pass
[9] = 4th pass, Alternating = calcium formate pass
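Wherever Mn in solution passed through soil column (ICP) is given: eluate from PVC columns holding 100 g of dry ground farm soil, analysed by ICP-OES for element content after the solution had drained through, irrigation water measured as received for reference.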

O=C[O-].O=C[O-].[Ca+2] [Ca formate, calcium formate]
Drainage Rate: Time (50 g), percentage relative to irrigation water ([1]; 1st pass, first farm soil): 66.7% | Drainage Rate: liquid eluted at 60 mins, percentage relative to irrigation water ([1]; 1st pass, first farm soil): 180% | Drainage Rate: liquid eluted at 120 mins, percentage relative to irrigation water ([1]; 1st pass, first farm soil): 152% | Liquid Eluted after 60 min ([1]; 1st pass, first farm soil): 28.6 g | Liquid Eluted after 120 min ([1]; 1st pass, first farm soil): 53.9 g | Time (50 g of liquid, in min) ([1]; 1st pass, first farm soil): 120 min | Drainage Rate: Time (50 g), percentage relative to irrigation water ([1]; 2nd pass, first farm soil): 66.7% | Drainage Rate: liquid eluted at 60 mins, percentage relative to irrigation water ([1]; 2nd pass, first farm soil): 157% | Drainage Rate: liquid eluted at 120 mins, percentage relative to irrigation water ([1]; 2nd pass, first farm soil): 150% | Drainage Rate: liquid eluted at 240 min, percentage relative to irrigation water ([1]; 2nd pass, first farm soil): 137% | Liquid Eluted after 60 min ([1]; 2nd pass, first farm soil): 33.3 g | Liquid Eluted after 120 min ([1]; 2nd pass, first farm soil): 59.9 g | Time (50 g of liquid, in min) ([1]; 2nd pass, first farm soil): 120 min | Liquid Eluted after 240 min ([1]; 2nd pass, first farm soil): 98.5 g | Drainage Rate: Time (50 g), percentage relative to irrigation water ([1]; 3rd pass, first farm soil): 83.3% | Drainage Rate: liquid eluted at 60 mins, percentage relative to irrigation water ([1]; 3rd pass, first farm soil): 138% | Drainage Rate: liquid eluted at 120 mins, percentage relative to irrigation water ([1]; 3rd pass, first farm soil): 135% | Drainage Rate: liquid eluted at 240 min, percentage relative to irrigation water ([1]; 3rd pass, first farm soil): 131% | Liquid Eluted after 60 min ([1]; 3rd pass, first farm soil): 26.4 g | Liquid Eluted after 120 min ([1]; 3rd pass, first farm soil): 48.8 g | Time (50 g of liquid, in min) ([1]; 3rd pass, first farm soil): 150 min | Liquid Eluted after 240 min ([1]; 3rd pass, first farm soil): 86.7 g | Drainage Rate: Time (50 g), percentage relative to irrigation water ([1]; 4th pass, first farm soil): 83.3% | Drainage Rate: liquid eluted at 60 mins, percentage relative to irrigation water ([1]; 4th pass, first farm soil): 123% | Drainage Rate: liquid eluted at 120 mins, percentage relative to irrigation water ([1]; 4th pass, first farm soil): 118% | Drainage Rate: liquid eluted at 240 min, percentage relative to irrigation water ([1]; 4th pass, first farm soil): 110% | Liquid Eluted after 60 min ([1]; 4th pass, first farm soil): 24.1 g | Liquid Eluted after 120 min ([1]; 4th pass, first farm soil): 44.6 g | Time (50 g of liquid, in min) ([1]; 4th pass, first farm soil): 150 min | Liquid Eluted after 240 min ([1]; 4th pass, first farm soil): 75.0 g | Liquid retained by the soil samples on average ([1]; first pass, dry soil, first farm, 100 ml added (FIG. 1)): about 36 ml | Improvement in amount of liquid eluted compared to the irrigation water ([1]; fixed periods 60, 120 and 240 mins, first farm soil): 110-180% | Liquid retained by the soil samples on average [2, 5]: 43 to 44 mL | Time at which solution had completed passing through the soil column on average [2, 5]: about 240 minutes | Time of first appearance of liquid from the columns on average [2, 5]: 20 to 30 min | Amount of liquid passed through the columns compared with irrigation water at the same lengths of time ([2]; first pass, second farm, from 20-30 minutes up to 240 minutes): more than three times as much | Time at which solution had completed passing through the soil column on average ([2]; second pass, wet/damp soil, second farm (FIG. 4)): about 390 minutes | B in solution passed through soil column (ICP) ([3]; 1st pass): 4.35 ppm and 4.97 ppm | Ca in solution passed through soil column (ICP) ([3]; 1st pass): 135.1 ppm and 142.4 ppm | K in solution passed through soil column (ICP) ([3]; 1st pass): 10.81 ppm and 11.82 ppm | Mg in solution passed through soil column (ICP) ([3]; 1st pass): 53.6 ppm and 56.4 ppm | Mn in solution passed through soil column (ICP) ([3]; 1st pass): 1.95 ppm and 2.09 ppm | Na in solution passed through soil column (ICP) ([3]; 1st pass): 82.3 ppm and 88.9 ppm | P in solution passed through soil column (ICP) ([3]; 1st pass): 0.45 ppm and 0.36 ppm | S in solution passed through soil column (ICP) ([3]; 1st pass): 99.1 ppm and 103.0 ppm | Si in solution passed through soil column (ICP) ([3]; 1st pass): 26.5 ppm and 27.6 ppm | B in solution passed through soil column (ICP) ([3]; 2nd pass): 2.41 ppm and 2.40 ppm | Ca in solution passed through soil column (ICP) ([3]; 2nd pass): 26.6 ppm and 25.2 ppm | K in solution passed through soil column (ICP) ([3]; 2nd pass): 5.69 ppm and 5.73 ppm | Mg in solution passed through soil column (ICP) ([3]; 2nd pass): 10.4 ppm and 9.8 ppm | Mn in solution passed through soil column (ICP) ([3]; 2nd pass): 0.19 ppm and 0.22 ppm | Na in solution passed through soil column (ICP) ([3]; 2nd pass): 36.8 ppm and 38.2 ppm | P in solution passed through soil column (ICP) ([3]; 2nd pass): 0.40 ppm and 0.41 ppm | S in solution passed through soil column (ICP) ([3]; 2nd pass): 21.2 ppm and 19.6 ppm | Si in solution passed through soil column (ICP) ([3]; 2nd pass): 25.2 ppm and 26.2 ppm | B in solution passed through soil column (ICP) ([3]; 3rd pass): 1.74 ppm and 1.48 ppm | Ca in solution passed through soil column (ICP) ([3]; 3rd pass): 21.1 ppm and 19.4 ppm | K in solution passed through soil column (ICP) ([3]; 3rd pass): 6.01 ppm and 5.41 ppm | Mg in solution passed through soil column (ICP) ([3]; 3rd pass): 8.2 ppm and 7.6 ppm | Na in solution passed through soil column (ICP) ([3]; 3rd pass): 32.7 ppm and 31.1 ppm | P in solution passed through soil column (ICP) ([3]; 3rd pass): 0.68 ppm and 0.58 ppm | S in solution passed through soil column (ICP) ([3]; 3rd pass): 13.9 ppm and 13.0 ppm | Si in solution passed through soil column (ICP) ([3]; 3rd pass): 28.4 ppm and 26.2 ppm | B in solution passed through soil column (ICP) ([3]; 4th pass): 0.69 ppm and 0.73 ppm | Ca in solution passed through soil column (ICP) ([3]; 4th pass): 15.0 ppm and 15.9 ppm | K in solution passed through soil column (ICP) ([3]; 4th pass): 5.09 ppm and 5.06 ppm | Mg in solution passed through soil column (ICP) ([3]; 4th pass): 5.9 ppm and 6.0 ppm | Mn in solution passed through soil column (ICP) ([3]; 4th pass): 0.05 ppm and 0.04 ppm | Na in solution passed through soil column (ICP) ([3]; 4th pass): 21.6 ppm and 22.9 ppm | P in solution passed through soil column (ICP) ([3]; 4th pass): 0.56 ppm | S in solution passed through soil column (ICP) ([3]; 4th pass): 5.3 ppm and 5.5 ppm | Si in solution passed through soil column (ICP) ([3]; 4th pass): 22.3 ppm and 22.7 ppm | B in solution passed through soil column (ICP) [4, 6]: 0.5 ppm | Ca in solution passed through soil column (ICP) [4, 6]: 76.1 ppm | Cl^− in solution passed through soil column (FIA) [4, 6]: 288.0 ppm | K in solution passed through soil column (ICP) [4, 6]: 4.5 ppm | Mg in solution passed through soil column (ICP) [4, 6]: 19.6 ppm | NO3^− in solution passed through soil column (FIA) [4, 6]: 0.0 ppm | Na in solution passed through soil column (ICP) [4, 6]: 169.0 ppm | P in solution passed through soil column (ICP) [4, 6]: 1.0 ppm | S in solution passed through soil column (ICP) [4, 6]: 51.4 ppm | Si in solution passed through soil column (ICP) [4, 6]: 26.3 ppm | B in solution passed through soil column (ICP) [4, 7]: 0.3 ppm | Ca in solution passed through soil column (ICP) [4, 7]: 24.0 ppm | Cl^− in solution passed through soil column (FIA) [4, 7]: 92.1 ppm | K in solution passed through soil column (ICP) [4, 7]: 2.5 ppm | Mg in solution passed through soil column (ICP) [4, 7]: 6.1 ppm | NO3^− in solution passed through soil column (FIA) [4, 7]: 0.0 ppm | Na in solution passed through soil column (ICP) [4, 7]: 110.4 ppm | P in solution passed through soil column (ICP) [4, 7]: 1.1 ppm | S in solution passed through soil column (ICP) [4, 7]: 14.8 ppm | Si in solution passed through soil column (ICP) [4, 7]: 26.9 ppm | B in solution passed through soil column (ICP) [4, 8]: 0.2 ppm | Ca in solution passed through soil column (ICP) [4, 8]: 21.7 ppm | Cl^− in solution passed through soil column (FIA) [4, 8]: 91.9 ppm | K in solution passed through soil column (ICP) [4, 8]: 2.4 ppm | Mg in solution passed through soil column (ICP) [4, 8]: 5.5 ppm | NO3^− in solution passed through soil column (FIA) [4, 8]: 0.0 ppm | Na in solution passed through soil column (ICP) [4, 8]: 96.4 ppm | P in solution passed through soil column (ICP) [4, 8]: 1.0 ppm | S in solution passed through soil column (ICP) [4, 8]: 10.3 ppm | Si in solution passed through soil column (ICP) [4, 8]: 24.3 ppm | B in solution passed through soil column (ICP) [4, 9]: 0.2 ppm | Ca in solution passed through soil column (ICP) [4, 9]: 30.4 ppm | Cl^− in solution passed through soil column (FIA) [4, 9]: 93.6 ppm | K in solution passed through soil column (ICP) [4, 9]: 2.4 ppm | Mg in solution passed through soil column (ICP) [4, 9]: 7.5 ppm | NO3^− in solution passed through soil column (FIA) [4, 9]: 0.0 ppm | Na in solution passed through soil column (ICP) [4, 9]: 95.4 ppm | P in solution passed through soil column (ICP) [4, 9]: 0.9 ppm | S in solution passed through soil column (ICP) [4, 9]: 10.1 ppm | Si in solution passed through soil column (ICP) [4, 9]: 23.3 ppm
